Reference: patent publication US6462055B2, “Alpha-methylbenzyl-containing thiourea inhibitors of herpes viruses containing a phenylenediamine group” (Wyeth, priority 1998, dated 2002)
≈ marks a conversion by molar mass, not a printed value.

How the values were obtained:
[1] = tested on: HCMV recombinant mutant virus (RV145); assay: microbe, parasite or virus in culture; type: cell-based, human cytomegalovirus; details: for IC50: Human betaherpesvirus 5, read-out: IC50 ug/ml HCMV, HCMV
Description: Microtiter plate assay. Ninety-six well plate cultures of human foreskin fibroblasts are infected in the presence of inhibitor compound with a HCMV recombinant mutant virus whose genome contains the prokaryotic beta-glucuronidase gene (Jefferson, R. A., S. M. Burgess, and D. Hirsh. 1986. Beta-glucuronidase from Escherichia coli as a gene fusion marker. Proc. Natl. Acad. Sci. USA 83:8447-8451) whose expression is controlled by a viral promoter. An example of such a virus is RV145 (Jones, T. R., V. P. Muzithras, and Y. Gluzman. 1991. Replacement mutagenesis of the human cytomegalovirus genome: US10 and US11 gene products are nonessential. J. Virol. 65:5860-5872). Since it is under the control of a viral promoter, beta-glucuronidase expression is an indirect indicator of growth and replication of HCMV in this assay. At 96 hours post-infection, the infected cell lysates are prepared (using 50 mM sodium phosphate [pH7.0]containing 0.1% Triton X-100 and 0.1% sarkosyl) and assayed for beta-glucuronidase activity using a substrate for the enzyme which when cleaved yields either a product which can be measured […] in a spectrophotometer or fluorescently in a microfluorimeter. Examples of such substrates are p-nitrophenyl-beta-D-glucuronide and methylumbelliferylglucuronide, respectively. The presence of an antiviral compound is indicated by the reduced expression of the HCMV genome resident beta-glucuronidase gene, compared to the absence of inhibitor. […] Data from this assay generated using varying amounts of inhibitor compound is also used to estimate the IC50 of an inhibitor compound.

VZV strain Ellen = assay: VZV Antiviral (ELISA) Assay in human foreskin fibroblast cells; type: cell-based, varicella-zoster virus; details: for IC50 / inhibition at 10 µg/mL: Human alphaherpesvirus 3, Fibroblast; for IC50: read-out: IC50 (ug/ml) VZV; for inhibition at 10 µg/mL: read-out: % inhibition 10 ug/ml VZV, 10 ug/ml
Protocol: For the generation of stock VZV to be used in the assay, VZV strain Ellen (ATCC #VR-1367) is used to infect human foreskin fibroblast (HFF) cells at low multiplicity (less than 0.1) and incubated overnight at 37° C. in 5% CO2. After the overnight incubation, the mixture of uninfected and VZV-infected HFF infected cells are then harvested and added to each well of 96-well plates (3.5×10^4 cells in 100 μl DMEM supplemented with 2% FBS) which contain test compound or the reference standard drug control (in 100 μl DMEM supplemented with 2% FBS per well). These cells are incubated for three days at 37° C. in 5% CO2, then fixed for ELISA assay. The primary antibody is murine anti-VZV glycoprotein II monoclonal antibody (Applied Biosystems, Inc. #13-145-100) and the secondary antibody is goat anti-mouse IgG linked to β-galactosidase. Thus the extent of viral replication is determined by assessing β-galactosidase activity by quantifying the generation of the 4-methyl umbelliferone fluorescent cleavage product after addition of the methyl umbelliferyl-β-D-galactoside (Sigma #M1633) substrate on a microfluorimeter (365 nm for excitation and 450 nm for emission). Antiviral activity (IC50) of the test compound is determined by comparing the flourescence obtained in absence of compound to that obtained in the presence of compound.

HSV-1 = assay: HSV Antiviral (ELISA) Assay in Vero cells; type: cell-based, herpes simplex virus type 1; details: HSV-1, Vero cells; for IC50: Human alphaherpesvirus 1, read-out: IC50 (ug/ml) HSV
Protocol: Vero cells (ATCC #CCL-81) are plated on 96-well tissue culture plates at 3.5×10^4 cells per 100 μl tissue culture DMEM (Dulbeccos modified Eagle media) supplemented with 2% fetal bovine serum (FBS) in each well. After overnight incubation @ 37° C. (in 5% CO2) and 30 minutes prior to infection with HSV-1 (multiplicity of infection equal to 0.006), cells are either untreated, or treated with test compound (multiple concentrations) or reference standard drug control. After approximately 24 hours post-infection incubation @ 37° C. (in 5% CO2), cells are fixed for ELISA assay. The primary antibody is murine anti-HSV glycoprotein D monoclonal primary antibody and the secondary antibody is goat anti-mouse IgG linked to β-galactosidase. Thus the extent of viral replication is determined by assessing β-galactosidase activity by quantifying the generation of the 4-methyl umbelliferone fluorescent cleavage product after addition of the methyl umbelliferyl-β-D-galactoside (Sigma #M1633) substrate on a microfluorimeter (365 nm for excitation and 450 nm for emission). Antiviral activity (IC50) of the test compound is determined by comparing the flourescence obtained in absence of compound to that obtained in the presence of compound.

Compound | IC50 ug/ml HCMV [1] | IC50 (ug/ml) VZV (VZV strain Ellen) | IC50 (VZV strain Ellen) | further results
COC(=O)c1cccc(C(=O)Nc2ccc(NC(=S)Nc3cc(Cl)c(OC)cc3OC)cc2)c1 [Example 208] | >10 µg/mL | >10 µg/mL | – | % inhibition 10 ug/ml VZV (VZV strain Ellen): 25%
Nc1cccc(NC(=S)Nc2ccc(NC(=O)c3ccccc3F)cc2)c1 [Example 434] | 5 µg/mL (≈ 13.1 µM) | >10 µg/mL | – | % inhibition 10 ug/ml VZV (VZV strain Ellen): 0%
O=C(Nc1ccc(NC(=S)Nc2cccc(CO)c2)cc1)c1ccccc1F [Example 476] | >10 µg/mL | >10 µg/mL | – | % inhibition 10 ug/ml VZV (VZV strain Ellen): 21%
O=C(Nc1ccc(NC(=S)Nc2cc(N3CCCC3)cc(C(F)(F)F)c2)cc1)c1ccccc1F [Example 566] | >0.5 µg/mL | 2 µg/mL (≈ 3.98 µM) | – | –
CN(C)c1cc(NC(=S)Nc2ccc(NC(=O)c3ccccc3F)cc2)cc(C(F)(F)F)c1 [Example 567] | – | – | 2 µg/mL (≈ 4.2 µM) | IC50 [1]: > 0.5 µg/mL
O=C(Nc1ccc(NC(=S)Nc2cc(N3CCOCC3)cc(C(F)(F)F)c2)cc1)c1ccccc1F [Example 568] | >0.5 µg/mL | 2.3 µg/mL (≈ 4.44 µM) | – | –
CN1CCN(c2cc(NC(=S)Nc3ccc(NC(=O)c4ccccc4F)cc3)cc(C(F)(F)F)c2)CC1 [Example 569] | >0.5 µg/mL | 3 µg/mL (≈ 5.64 µM) | – | –
O=C(Nc1ccc(NC(=S)NCCc2ccccc2)cc1)c1ccccc1F [Example 576] | – | – | 8 µg/mL (≈ 20.3 µM) | IC50 [1]: > 0.5 µg/mL
CN(C)c1ccc(CNC(=S)Nc2ccc(NC(=O)c3ccccc3F)cc2)cc1C(F)(F)F [Example 610] | >0.5 µg/mL | >10 µg/mL | – | –
CN(C)c1cc(CCNC(=S)Nc2ccc(NC(=O)c3ccccc3F)cc2)cc(C(F)(F)F)c1 [Example 653] | >0.5 µg/mL | – | – | IC50 (ug/ml) HSV (HSV-1): >10 µg/mL
O=C(Nc1ccc(NC(=S)NCCSc2ccccc2)cc1)c1ccccc1F [Example 656] | >0.5 µg/mL | – | – | IC50 (ug/ml) HSV (HSV-1): 5 µg/mL (≈ 11.7 µM)
O=C(Nc1ccc(NC(=S)NCCOc2cc(Cl)cc(Cl)c2)cc1)c1ccccc1F [Example 664] | >0.5 µg/mL | – | – | –
O=C(Nc1ccc(NC(=S)NCCOc2cccc(Cl)c2)cc1)c1ccccc1F [Example 666] | >0.5 µg/mL | – | – | –
CC(NC(=S)Nc1ccc(NC(=O)c2cccc(Cl)c2)cc1)c1ccc(F)cc1 (stereo not shown) [Example 761] | 1.5 µg/mL (≈ 3.51 µM) | >10 µg/mL | – | –
CC(NC(=S)Nc1ccc(NC(=O)c2ccc(N(C)C)cc2)cc1)c1ccc(F)cc1 (stereo not shown) [Example 765] | 2.3 µg/mL (≈ 5.27 µM) | – | – | –
COc1ccc(C(=O)Nc2ccc(NC(=S)Nc3cc(Br)c(OC)cc3OC)cc2)cc1 [Example 830, N-{4-[3-(5-Bromo-2,4-dimethoxy-phenyl)-thioureido]-phenyl}-4-methoxy-benzamide] | – | – | > 10 µg/mL | IC50 [1]: > 10 µg/mL; inhibition at 10 µg/mL (VZV strain Ellen): 16%
O=C(Nc1ccc(NC(=S)Nc2ccc(Br)c(Cl)c2)cc1)c1ccccc1F [Example 915, N-{4-[3-(4-Bromo-3-chloro-phenyl)-thioureido]-phenyl}-2-fluoro-benzamide] | – | – | > 10 µg/mL | IC50 [1]: > 10 µg/mL; inhibition at 10 µg/mL (VZV strain Ellen): 29%

Compound | IC50 ug/ml HCMV [1] | IC50 (ug/ml) VZV (VZV strain Ellen) | IC50 (VZV strain Ellen) | further results
NC(=O)c1cccc(NC(=S)Nc2ccc(NC(=O)c3ccccc3F)cc2)c1 [Example 952, N-[4-[[[[3-(Aminocarbonyl)phenyl]amino]thioxomethyl]amino]phenyl]-2-fluoro-benzamide] | – | – | > 10 µg/mL | IC50 [1]: > 10 µg/mL; inhibition at 10 µg/mL (VZV strain Ellen): 22%
O=C(Nc1ccc(NC(=S)Nc2cccc(OC(F)(F)F)c2)cc1)c1ccccc1F [Example 961, 2-Fluoro-N-{4-[3-(3-trifluoromethoxy-phenyl)-thioureido]-phenyl}-benzamide] | – | – | > 10 µg/mL | IC50 [1]: > 10 µg/mL; inhibition at 10 µg/mL (VZV strain Ellen): 53%
O=C(Nc1ccc(NC(=S)Nc2cccc(S(=O)(=O)CCO)c2)cc1)c1ccccc1F [Example 969, 2-Fluoro-N-(4-{3-[3-(2-hydroxy-ethanesulfonyl)-phenyl]-thioureido}-phenyl)-benzamide] | – | – | > 10 µg/mL | IC50 [1]: > 10 µg/mL; inhibition at 10 µg/mL (VZV strain Ellen): 19%
CC(NC(=S)Nc1ccc(NC(=O)c2ccccc2C(F)(F)F)cc1)c1ccc(F)cc1 (stereo not shown) [Example 992, N-(4-{3-[1-(4-Fluoro-phenyl)-ethyl]-thioureido}-phenyl)-2-trifluoromethyl-benzamide] | – | – | 1.2 µg/mL (≈ 2.6 µM) | IC50 [1]: 4 µg/mL (≈ 8.67 µM)
Nc1ccc(C(F)(F)F)cc1NC(=S)Nc1ccc(NC(=O)c2ccccc2F)cc1 [Example 999, N-{4-[3-(2-Amino-5-trifluoromethyl-phenyl)-thioureido]-phenyl}-2-fluoro-benzamide] | – | – | 9.4 µg/mL (≈ 21 µM) | IC50 [1]: 4 µg/mL (≈ 8.92 µM)
Nc1ccc(F)cc1NC(=S)Nc1ccc(NC(=O)c2ccccc2F)cc1 [Example 1007, N-{4-[3-(2-Amino-5-fluoro-phenyl)-thioureido]-phenyl}-2-fluoro-benzamide] | – | – | > 10 µg/mL | IC50 [1]: > 10 µg/mL
C[C@@H](NC(=S)Nc1ccc(NC(=O)c2ccccc2F)cc1)c1ccc(Cl)cc1 [Example 1014, N-(4-{3-[(1R)-1-(4-Chloro-phenyl)-ethyl]-thioureido}-phenyl)-2-fluoro-benzamide] | – | – | > 7.5 µg/mL | IC50 (HSV-1): > 10 µg/mL
C[C@H](NC(=S)Nc1ccc(NC(=O)c2ccccc2F)cc1)c1ccc(Cl)cc1 [Example 1015, N-(4-{3-[(1S)-1-(4-Chloro-phenyl)-ethyl]-thioureido}-phenyl)-2-fluorobenzamide] | – | – | 0.03 µg/mL (≈ 0.0701 µM) | IC50 (HSV-1): > 10 µg/mL
C[C@@H](NC(=S)Nc1ccc(NC(=O)c2ccccc2F)cc1)c1ccccc1 [Example 1016, 2-Fluoro-N-{4-[3-((1R)-1-phenyl-ethyl)-thioureido]-phenyl}-benzamide] | – | – | > 7.5 µg/mL | IC50 (HSV-1): > 10 µg/mL
CC(NC(=S)Nc1ccc(NC(=O)c2cccc(C#N)c2)cc1)c1ccc(F)cc1 (stereo not shown) [Example 1020, 3-Cyano-N-(4-{3-[1-(4-fluoro-phenyl)-ethyl]-thioureido}-phenyl)-benzamide] | – | – | 6.3 µg/mL (≈ 15.1 µM) | IC50 (HSV-1): > 10 µg/mL
CC(NC(=S)Nc1ccc(NC(=O)c2ccc(C#N)cc2)cc1)c1ccc(F)cc1 (stereo not shown) [Example 1022, 4-Cyano-N-(4-{3-[1-(4-fluoro-phenyl)-ethyl]-thioureido}-phenyl)-benzamide] | – | – | 1.5 µg/mL (≈ 3.58 µM) | IC50 (HSV-1): > 10 µg/mL
CC(NC(=S)Nc1ccc(NC(=O)c2ccccc2F)cc1)c1ccc(Br)cc1 (stereo not shown) [Example 1102] | 1.7 µg/mL (≈ 3.6 µM) | 0.2 µg/mL (≈ 0.423 µM) | – | –
C[C@H](NC(=S)Nc1ccc(NC(=O)c2ccc(F)cc2)cc1)c1ccc(Br)cc1 [Example 1103] | 3.4 µg/mL (≈ 7.2 µM) | 0.47 µg/mL (≈ 0.995 µM) | – | –
COc1ccccc1C(=O)Nc1ccc(NC(=S)N[C@@H](C)c2ccc(Br)cc2)cc1 [Example 1104] | 4.9 µg/mL (≈ 10.1 µM) | 0.09 µg/mL (≈ 0.186 µM) | – | –
COc1ccccc1C(=O)Nc1ccc(NC(=S)N[C@H](C)c2ccc(Br)cc2)cc1 [Example 1105] | 2.5 µg/mL (≈ 5.16 µM) | >7.5 µg/mL | – | –
C[C@H](NC(=S)Nc1ccc(NC(=O)c2nccc3ccccc23)cc1)c1ccc(Br)cc1 [Example 1107] | 8.1 µg/mL (≈ 16 µM) | 0.05 µg/mL (≈ 0.0989 µM) | – | –
C[C@H](NC(=S)Nc1ccc(NC(=O)c2cc3ccccc3cn2)cc1)c1ccc(Br)cc1 [Example 1108] | 2.3 µg/mL (≈ 4.55 µM) | 0.05 µg/mL (≈ 0.0989 µM) | – | –
